According to patent US20260262643A1, “HERBICIDAL BENZOXAZINES” (FMC CORPORATION, priority 2022, published 2026):

Experiments:
goosegrass [1] = experiment: Test A preemergence; type: in vivo, Eleusine indica
Method in brief: (§1)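 Visual injury ratings on a 0–100 scale (100 = complete control) versus untreated controls, taken 10 days after treatment in greenhouse. Preemergence: directed soil spray onto seeded loam/sand. Postemergence: foliar application at one- to two-leaf stage, plants 2–10 cm. Formulation: non-phytotoxic solvent plus surfactant.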

oat, wild [2] = experiment: Test A postemergence; type: in vivo, Avena fatua
Method in brief: as §1

kochia [3] = experiment: Test A preemergence; type: in vivo, Bassia scoparia
Method in brief: as §1

rice = experiment: Test B flooded paddy test; type: in vivo, Oryza sativa; conditions: 250 g ai/ha, Flood, 13 days, 0 to 100 scale (0 no effect, 100 complete control)
Method in brief: (§2)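 2-leaf stage; pots flooded 3 cm over soil; compound dosed into paddy water; depth kept constant. Greenhouse, 13 d. Visual rating vs controls, 0 (no effect)–100 (complete control). Dash = no result.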

corn [4] = experiment: Test A preemergence; type: in vivo, Zea mays
Method in brief: as §1

oat, wild [5] = experiment: Test A preemergence; type: in vivo, Avena fatua
Excerpt: Seeds of plant species selected from barnyardgrass (Echinochloa crusgalli), blackgrass (Alopecurus myosuroides), corn (Zea mays), foxtail, giant (giant foxtail, Setaria faberi), goosegrass (Eleusine indica), kochia (Bassia scoparia), oat, wild (wild oat, Avena fatua), pigweed, palmer (palmer amaranth, palmer pigweed, Amaranthus palmeri), Pigweed, Redroot (redroot pigweed, Amaranthus retroflexus), ragweed (common ragweed, Ambrosia artemisiifolia), ryegrass, Italian (italian ryegrass, Lolium multiflorum), soybean (Glycine max), and wheat (Triticum aestivum) were planted into a blend of loam soil and sand and treated preemergence with a directed soil spray using test chemicals formulated in a non-phytotoxic solvent mixture which included a surfactant. At the same time, plants selected from these crops and weed species and also galium (catchweed bedstraw, Galium aparine) and horseweed (Erigeron canadensis) were planted in pots containing the same blend of loam soil and sand and treated with postemergence applications of test chemicals formulated in the same manner. Plants ranged in height from 2 to 10 cm and were in the one- to two-leaf stage for the postemergence treatment. Treated plants and untreated controls were maintained in a greenhouse for 10 days, after which time all treated plants were compared to untreated controls and visually evaluated for injury. Plant response ratings, summarized in Table A, are based on a 0 to 100 scale where 0 is no effect and 100 is complete control. A dash (-) response means no test result.

foxtail, giant [6] = experiment: Test A postemergence; type: in vivo, Setaria faberi
Method in brief: as §1

goosegrass [7] = experiment: Test A postemergence; type: in vivo, Eleusine indica
Method in brief: as §1

blackgrass [8] = experiment: Test A preemergence; type: in vivo, Alopecurus myosuroides
Method in brief: as §1

wheat [9] = experiment: Test A postemergence; type: in vivo, Triticum aestivum
Method in brief: as §1

pigweed, palmer [10] = experiment: Test A preemergence; type: in vivo, Amaranthus palmeri
Method in brief: as §1

sedge, umbrella = experiment: Test B flooded paddy test; type: in vivo, Cyperus difformis; conditions: 250 g ai/ha, Flood, 13 days, 0 to 100 scale (0 no effect, 100 complete control)
Method in brief: as §2

blackgrass [11] = experiment: Test A postemergence; type: in vivo, Alopecurus myosuroides
Method in brief: as §1

ryegrass, Italian [12] = experiment: Test A preemergence; type: in vivo, Lolium multiflorum
Method in brief: as §1

soybean [13] = experiment: Test A postemergence; type: in vivo, Glycine max
Method in brief: as §1

pigweed, palmer [14] = experiment: Test A postemergence; type: in vivo, Amaranthus palmeri
Method in brief: as §1

corn [15] = experiment: Test A postemergence; type: in vivo, Zea mays
Method in brief: as §1

kochia [16] = experiment: Test A postemergence; type: in vivo, Bassia scoparia
Method in brief: as §1

barnyardgrass = experiment: Test B flooded paddy test; type: in vivo, Echinochloa crus-galli; conditions: 250 g ai/ha, Flood, 13 days, 0 to 100 scale (0 no effect, 100 complete control)
Method in brief: as §2

foxtail, giant [17] = experiment: Test A preemergence; type: in vivo, Setaria faberi
Method in brief: as §1

ducksalad = experiment: Test B flooded paddy test; type: in vivo, Heteranthera limosa; conditions: 250 g ai/ha, Flood, 13 days, 0 to 100 scale (0 no effect, 100 complete control)
Method in brief: as §2

ragweed [18] = experiment: Test A preemergence; type: in vivo, Ambrosia artemisiifolia
Method in brief: as §1

ragweed [19] = experiment: Test A postemergence; type: in vivo, Ambrosia artemisiifolia
Method in brief: as §1

ryegrass, Italian [20] = experiment: Test A postemergence; type: in vivo, Lolium multiflorum
Method in brief: as §1

galium = experiment: Test A postemergence; type: in vivo, Galium aparine
Method in brief: as §1

wheat [21] = experiment: Test A preemergence; type: in vivo, Triticum aestivum
Method in brief: as §1

soybean [22] = experiment: Test A preemergence; type: in vivo, Glycine max; conditions: 500 g ai/ha, 0 to 100 scale (0 no effect, 100 complete control), 10 days
Method in brief: as §1

[23] = 125 g ai/ha, visual injury after 10 days, 0 to 100 scale, 0 is no effect, 100 is complete control
[24] = 500 g ai/ha, 0 to 100 scale (0 no effect, 100 complete control), 10 days
[25] = 125 g ai/ha, postemergence, 10 days, visual injury, 0 to 100 scale (0 no effect, 100 complete control)
[26] = 500 g ai/ha, Postemergence, 0 to 100 scale

SMILES: CCc1cccc2c1OC(C)CN2C(=O)c1cccc(-n2cncn2)c1 (stereo not shown) [Compound 43]
- Plant response rating, Goosegrass (goosegrass [1]; [23]): 60
- Plant response rating, Goosegrass (goosegrass [1]; [24]): 90
- Plant response rating, Oat, Wild (oat, wild [2]; [25]): 0
- Plant response rating, Oat, Wild (oat, wild [2]; [26]): 20
- Plant response rating, Kochia (kochia [3]; [23]): 0
- Plant response rating, Kochia (kochia [3]; [24]): 0
- Plant response rating, Rice (rice): 0
- Plant response rating, Corn (corn [4]; [23]): 10
- Plant response rating, Corn (corn [4]; [24]): 20
- Plant response rating, Oat, Wild (oat, wild [5]; [23]): 20
- Plant response rating, Oat, Wild (oat, wild [5]; [24]): 90
- Plant response rating, Foxtail, Giant (foxtail, giant [6]; [25]): 10
- Plant response rating, Foxtail, Giant (foxtail, giant [6]; [26]): 70
- Plant response rating, Goosegrass (goosegrass [7]; [25]): 0
- Plant response rating, Goosegrass (goosegrass [7]; [26]): 40
- Plant response rating, Blackgrass (blackgrass [8]; [23]): 10
- Plant response rating, Blackgrass (blackgrass [8]; [24]): 40
- Plant response rating, Wheat (wheat [9]; [25]): 10
- Plant response rating, Wheat (wheat [9]; [26]): 30
- Plant response rating, Pigweed, Palmer (pigweed, palmer [10]; [23]): 0
- Plant response rating, Pigweed, Palmer (pigweed, palmer [10]; [24]): 80
- Plant response rating, Sedge, Umbrella (sedge, umbrella): 0
- Plant response rating, Blackgrass (blackgrass [11]; [25]): 0
- Plant response rating, Blackgrass (blackgrass [11]; [26]): 0
- Plant response rating, Ryegrass, Italian (ryegrass, Italian [12]; [23]): 60
- Plant response rating, Ryegrass, Italian (ryegrass, Italian [12]; [24]): 90
- Plant response rating, Soybean (soybean [13]; [25]): 80
- Plant response rating, Soybean (soybean [13]; [26]): 100
- Plant response rating, Pigweed, Palmer (pigweed, palmer [14]; [25]): 50
- Plant response rating, Pigweed, Palmer (pigweed, palmer [14]; [26]): 20
- Plant response rating, Corn (corn [15]; [25]): 10
- Plant response rating, Corn (corn [15]; [26]): 30
- Plant response rating, Kochia (kochia [16]; [25]): 10
- Plant response rating, Kochia (kochia [16]; [26]): 30
- Plant response rating, Barnyardgrass (barnyardgrass): 0
- Plant response rating, Foxtail, Giant (foxtail, giant [17]; [23]): 60
- Plant response rating, Foxtail, Giant (foxtail, giant [17]; [24]): 90
- Plant response rating, Ducksalad (ducksalad): 0
- Plant response rating, Ragweed (ragweed [18]; [23]): 0
- Plant response rating, Ragweed (ragweed [18]; [24]): 20
- Plant response rating, Ragweed (ragweed [19]; [25]): 0
- Plant response rating, Ragweed (ragweed [19]; [26]): 0
- Plant response rating, Ryegrass, Italian (ryegrass, Italian [20]; [25]): 30
- Plant response rating, Ryegrass, Italian (ryegrass, Italian [20]; [26]): 60
- Plant response rating, Galium (galium; [25]): 30
- Plant response rating, Galium (galium; [26]): 60
- Plant response rating, Wheat (wheat [21]; [23]): 0
- Plant response rating, Wheat (wheat [21]; [24]): 10
- Plant response rating, Soybean (soybean [22]): 40
